Results taken from patent US20250025451A1, “TREATMENT OF CANCER WITH KDM4 INHIBITORS” (Celgene Corporation, priority 2021, published 2025).
Read-outs that look alike come from different tables or passages of the source.

Legend:
MCF-7 = assay: cell-proliferation assay (MTS), MCF-7; assay type: cell-based; conditions: MCF-7, human breast carcinoma
Procedure: Compound 1 was evaluated in in vitro cell-proliferation assays (BrdU assay, MTS assay, or Cell Titer Glo (CTG) assay) in multiple cancer cell lines and patient-derived organoid models to determine half-maximal inhibitory concentrations (IC50s).
Viability and BrdU thymidine incorporation assays were performed in multiwell plates seeded with cells in growth medium. After seeding, multiwell plates were cultured for 24 hours in a humidified incubator at 37° C. to promote adherence. […] The cultures were incubated for 168 hours after which the number of viable cells or the amount of thymidine incorporation in each test well was assessed by the methods as indicated above. Readouts were performed using an EnVision® Multilabel Reader (PerkinElmer, Waltham, MA) and the results were expressed as a percent of the negative control. Percent of Control values were plotted against the corresponding Compound 1 concentration and the relative IC50 value was determined from a non-linear regression curve as the concentration where inhibition was half-maximal. For cell lines where the number of IC50 determinations exceeded one, the IC50 was expressed as the mean IC50±SD.
Half-maximal inhibitory concentration (IC50) values for Compound 1 inhibition of cell proliferation were determined for nine cancer cell lines and one normal human fibroblastcell line.

human cancer cell lines = assay: apoptosis in human cancer cell lines; assay type: cell-based
[1] = system: KYSE-150 human esophageal cancer xenograft; assay type: in vivo; conditions: for Median Tumor Volumes Day 19: KYSE-150 CDX Study #1, female NSG mice; for % TGI / Median Tumor Volumes Diff.: KYSE-150 Study #1; for % TGI: Day 19; for Median Tumor Volumes Diff.: Day 19 minus Day 1
Procedure: The therapeutic in vivo efficacy of Compound 1 was evaluated in SU60 colorectal cancer, KYSE-150 esophageal cancer, COH70 triple-negative breast cancer, GXA-3036 gastric adenocarcinoma and OCI-LY19 Diffuse Large B-Cell Non-Hodgkin's Lymphoma xenograft models. In all studies, efficacy was determined based on percent tumor growth inhibition (TGI), differences in mean tumor growth, and statistical assessment of differences in net tumor volume distributions on the day of TGI analysis between control and treated animals. Tolerability was assessed based on differences in mean body weights between control and treated animals over the course of the study.
Study #1—The in vivo therapeutic efficacy and tolerability of Compound 1, administered orally as the lysine salt suspended in a vehicle comprised of 10% PEG 400 and 90% of 0.5% methylcellulose (MC), was evaluated in the KYSE-150 ESCC CDX model established in female NSG mice. As presented in Table 5, […] at 5, 15, or 50 mg/kg (free acid equivalents) administered on the 3 on/4 off schedule yielded dose-dependent TGIs of 19%, 50%, and 72%, respectively. […] As shown in FIG. 11 (left panel), tumor growth in the Compound 1-treated groups was reduced relative to control animals. The relative rates of tumor growth among the various Compound 1-treated groups were consistent with the TGI attained at study end. As presented in FIG. 11 (right panel), Compound 1 appeared well-tolerated with nominal mean body weight gains over the course of the study. Each mouse was inoculated subcutaneously in the right flank with 1×10^7 KYSE-150 tumor cells (0.1 ml) suspended in PBS. When the average tumor size reached ˜117 mm3, test animals were randomized into 4 groups consisting of 9 mice per group and treatments were initiated. Control mice received 10% PEG 400 and 90% of 0.5% MC vehicle PO 3 on/4 off. Treated mice received the Compound 1 lysine salt form suspended in vehicle at 5, 15, or 50 mg/kg on the same schedule. TGI was determined on Day 19 as (1−Difftreated/Diffcontrol)×100; The difference mean net tumor volumes on the day of TGI analysis for treated versus control animals was evaluated statistically using one-way ANOVA followed by Dunnett's multiple comparisons test; Adjusted p-values are shown where a calculated probability (p)≤0.05 was considered statistically significant. Individual tumors were measured twice weekly in three dimensions using a caliper, and the tumor volumes (TV) in mm3 were calculated using the formula: TV=0.5 (l×w×h), where l, w, and h are the tumor length, width, and height in mm, respectively; Mean tumor volumes SEM were calculated and plotted versus days of dosing (left panel). Body weights were measured twice weekly. Body weights±SEM were calculated and plotted versus days of dosing (right panel).

CC(C)c1ccc(N(C)c2ccc3c(c2)OCC[C@H]3CNc2cnccc2C(=O)O)cc1 [Compound 1, 3-({[(4R)-7-{methyl[4-(propan-2-yl)phenyl]amino}-3,4-dihydro-2H-1-benzopyran-4-yl]methyl}amino)pyridine-4-carboxylic acid]
IC50 (MCF-7; Homo sapiens, MCF7, 168 h): < 0.04 µM | IC50 (MCF-7; 168 hours): 0.037 µM | effect on apoptosis (human cancer cell lines): induces apoptosis | Median Tumor Volumes Day 19 ([1]; lysine salt 5 mg/kg (free acid equivalents) PO 3 on/4 off): 824 mm^3 | Median Tumor Volumes Day 19 ([1]; lysine salt 15 mg/kg (free acid equivalents) PO 3 on/4 off): 569 mm^3 | Median Tumor Volumes Day 19 ([1]; lysine salt 50 mg/kg (free acid equivalents) PO 3 on/4 off): 359 mm^3 | % TGI ([1]; 5 mg/kg PO 3 on/4 off, 5 mg/kg): 19% | % TGI ([1]; 5 mg/kg PO 3 on/4 off, listed as compound 4, 5 mg/kg): 19% | Median Tumor Volumes Diff. ([1]; 5 mg/kg PO 3 on/4 off): 719 mm^3 | % TGI ([1]; 15 mg/kg PO 3 on/4 off, 15 mg/kg): 50% | % TGI ([1]; 15 mg/kg PO 3 on/4 off, listed as compound 4, 15 mg/kg): 50% | Median Tumor Volumes Diff. ([1]; 15 mg/kg PO 3 on/4 off): 442 mm^3 | % TGI ([1]; 50 mg/kg PO 3 on/4 off, 50 mg/kg): 72% | % TGI ([1]; 50 mg/kg PO 3 on/4 off, listed as compound 4, 50 mg/kg): 72% | Median Tumor Volumes Diff. ([1]; 50 mg/kg PO 3 on/4 off): 250 mm^3
